The source made the active and inactive calls.
Experiments:
[1] = Counterscreen for AddAB inhibitors: absorbance-based bacterial cell-based high throughput dose response assay for inhibitors of bacterial viability. [Related pubchem assays (depositor defined):AID435030, AID449728, AID449731, AID488942, AID488955, AID488956]; format: functional
Exodeoxyribonuclease V = target: T1, Exodeoxyribonuclease V (Escherichia coli (strain K12), UniProt P04993+P07648+P08394); test: E. coli RecBCD inhibitors, dose response, counter-screen for AddAB inhibitor project, absorbance, V66 E. coli, mutant T4 phage (AID 492957); format: functional, cell-based, Escherichia coli str. K-12 substr. MG1655
T1 sequence (P04993 whole entry): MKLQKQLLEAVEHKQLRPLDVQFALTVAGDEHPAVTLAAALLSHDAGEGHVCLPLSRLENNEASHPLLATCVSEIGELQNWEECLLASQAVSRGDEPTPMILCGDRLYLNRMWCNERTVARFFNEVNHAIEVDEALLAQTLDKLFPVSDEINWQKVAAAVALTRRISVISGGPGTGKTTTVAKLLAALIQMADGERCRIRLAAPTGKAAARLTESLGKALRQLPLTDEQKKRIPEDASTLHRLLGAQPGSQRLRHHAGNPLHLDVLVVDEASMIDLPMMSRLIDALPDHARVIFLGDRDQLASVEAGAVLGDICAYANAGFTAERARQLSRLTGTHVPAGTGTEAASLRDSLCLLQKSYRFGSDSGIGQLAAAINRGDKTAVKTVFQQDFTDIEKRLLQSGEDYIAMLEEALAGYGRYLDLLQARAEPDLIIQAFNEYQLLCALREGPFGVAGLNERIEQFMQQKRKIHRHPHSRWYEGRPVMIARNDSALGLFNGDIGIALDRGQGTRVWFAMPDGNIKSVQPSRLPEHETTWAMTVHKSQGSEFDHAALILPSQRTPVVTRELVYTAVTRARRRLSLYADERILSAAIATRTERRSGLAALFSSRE
T1 sequence (P07648 whole entry): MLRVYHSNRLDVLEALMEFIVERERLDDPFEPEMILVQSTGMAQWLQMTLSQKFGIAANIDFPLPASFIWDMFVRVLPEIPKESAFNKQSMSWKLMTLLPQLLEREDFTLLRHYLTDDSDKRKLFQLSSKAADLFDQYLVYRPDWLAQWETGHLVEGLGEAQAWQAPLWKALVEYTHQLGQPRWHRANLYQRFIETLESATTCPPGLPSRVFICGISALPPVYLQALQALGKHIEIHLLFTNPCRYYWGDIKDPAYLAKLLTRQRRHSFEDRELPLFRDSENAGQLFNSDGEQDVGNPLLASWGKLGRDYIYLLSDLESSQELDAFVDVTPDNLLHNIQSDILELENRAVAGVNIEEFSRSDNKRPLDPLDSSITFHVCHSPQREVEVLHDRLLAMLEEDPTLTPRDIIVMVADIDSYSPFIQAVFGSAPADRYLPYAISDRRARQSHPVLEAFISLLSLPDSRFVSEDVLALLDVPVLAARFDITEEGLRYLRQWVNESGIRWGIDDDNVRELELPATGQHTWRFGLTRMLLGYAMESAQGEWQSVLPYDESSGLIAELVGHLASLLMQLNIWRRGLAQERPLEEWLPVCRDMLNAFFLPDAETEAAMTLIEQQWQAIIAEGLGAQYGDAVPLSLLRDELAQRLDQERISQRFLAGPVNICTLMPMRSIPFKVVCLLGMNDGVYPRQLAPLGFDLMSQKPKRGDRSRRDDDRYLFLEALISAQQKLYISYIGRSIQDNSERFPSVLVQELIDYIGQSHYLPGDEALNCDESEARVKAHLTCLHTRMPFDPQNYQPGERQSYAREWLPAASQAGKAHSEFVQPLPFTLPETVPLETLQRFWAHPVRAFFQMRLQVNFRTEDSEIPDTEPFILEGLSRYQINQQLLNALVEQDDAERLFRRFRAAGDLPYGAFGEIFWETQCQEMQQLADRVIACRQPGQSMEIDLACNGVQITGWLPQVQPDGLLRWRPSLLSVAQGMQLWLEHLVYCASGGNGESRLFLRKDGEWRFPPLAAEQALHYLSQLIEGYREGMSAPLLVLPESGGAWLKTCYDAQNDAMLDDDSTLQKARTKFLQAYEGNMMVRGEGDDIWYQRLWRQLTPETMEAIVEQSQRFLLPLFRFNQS
T1 sequence (P08394 whole entry): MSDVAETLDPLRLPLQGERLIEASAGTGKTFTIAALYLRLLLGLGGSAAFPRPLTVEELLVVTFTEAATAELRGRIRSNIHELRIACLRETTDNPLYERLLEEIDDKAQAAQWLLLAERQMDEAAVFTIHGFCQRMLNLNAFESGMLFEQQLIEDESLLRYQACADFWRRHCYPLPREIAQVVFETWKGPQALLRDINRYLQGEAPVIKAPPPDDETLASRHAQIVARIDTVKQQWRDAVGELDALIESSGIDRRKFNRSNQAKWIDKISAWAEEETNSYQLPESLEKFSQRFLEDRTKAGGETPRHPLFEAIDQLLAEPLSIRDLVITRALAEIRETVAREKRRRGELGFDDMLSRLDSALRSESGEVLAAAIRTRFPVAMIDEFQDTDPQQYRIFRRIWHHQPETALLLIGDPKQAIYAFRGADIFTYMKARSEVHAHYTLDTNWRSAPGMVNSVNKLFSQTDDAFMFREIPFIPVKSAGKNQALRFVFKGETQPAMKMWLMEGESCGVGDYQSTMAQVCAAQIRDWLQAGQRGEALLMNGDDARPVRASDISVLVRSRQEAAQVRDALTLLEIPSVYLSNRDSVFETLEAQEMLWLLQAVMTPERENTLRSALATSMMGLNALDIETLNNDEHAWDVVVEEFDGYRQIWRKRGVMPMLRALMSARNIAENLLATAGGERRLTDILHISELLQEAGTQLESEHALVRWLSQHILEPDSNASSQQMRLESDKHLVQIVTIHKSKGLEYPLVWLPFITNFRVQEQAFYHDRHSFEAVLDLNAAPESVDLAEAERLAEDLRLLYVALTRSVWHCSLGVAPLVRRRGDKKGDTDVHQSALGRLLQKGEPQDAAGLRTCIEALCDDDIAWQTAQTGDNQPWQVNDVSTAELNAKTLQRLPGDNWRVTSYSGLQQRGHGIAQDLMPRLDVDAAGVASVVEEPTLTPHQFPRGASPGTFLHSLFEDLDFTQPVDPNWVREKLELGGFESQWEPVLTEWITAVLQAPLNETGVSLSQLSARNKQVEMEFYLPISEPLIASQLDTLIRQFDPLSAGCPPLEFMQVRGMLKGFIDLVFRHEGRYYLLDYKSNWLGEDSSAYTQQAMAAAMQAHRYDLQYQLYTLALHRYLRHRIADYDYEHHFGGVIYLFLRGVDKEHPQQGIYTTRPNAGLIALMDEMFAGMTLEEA

INS1 = test: beta cell apoptosis inhibitors, cytokine rescue, dose response, luminescence, retest (AID 449756); format: functional, cell-based; conditions: Rattus norvegicus;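 also: cell death triggered by IL-1 beta plus TNF-alpha plus IFN-gamma mixture; protective hits raise ATP signal compared with cytokine alone wells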
Troponin, cardiac muscle = Troponin, cardiac muscle (Homo sapiens, UniProt P19429+P45379+P63316); test: Fluorescence-based biochemical high throughput dose response assay for activators of the calcium sensitivity of cardiac Regulated Thin Filaments (RTF). [Related pubchem assays (depositor defined):AID493008, AID493018, AID504382, AID504383]; format: protein-complex assay
Protein skinhead-1 = target: T2, Protein skinhead-1 (Caenorhabditis elegans, UniProt P34707); format: functional
T2 sequence (P34707 whole entry): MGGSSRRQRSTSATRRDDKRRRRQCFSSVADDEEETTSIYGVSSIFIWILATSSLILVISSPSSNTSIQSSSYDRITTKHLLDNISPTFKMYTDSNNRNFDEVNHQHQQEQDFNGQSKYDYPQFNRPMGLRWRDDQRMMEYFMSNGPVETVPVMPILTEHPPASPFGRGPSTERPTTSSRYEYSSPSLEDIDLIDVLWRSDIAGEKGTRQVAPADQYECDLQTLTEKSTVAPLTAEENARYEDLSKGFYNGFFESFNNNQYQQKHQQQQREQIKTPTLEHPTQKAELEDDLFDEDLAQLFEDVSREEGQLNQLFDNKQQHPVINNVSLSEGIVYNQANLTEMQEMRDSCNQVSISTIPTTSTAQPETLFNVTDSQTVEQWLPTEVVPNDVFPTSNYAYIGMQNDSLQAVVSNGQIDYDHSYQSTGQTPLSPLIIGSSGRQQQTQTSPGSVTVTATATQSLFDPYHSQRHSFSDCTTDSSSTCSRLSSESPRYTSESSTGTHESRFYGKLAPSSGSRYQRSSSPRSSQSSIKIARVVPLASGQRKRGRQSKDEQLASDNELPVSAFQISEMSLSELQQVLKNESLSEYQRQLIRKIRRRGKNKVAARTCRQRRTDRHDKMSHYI

[2] = target: DNA dC->dU-editing enzyme APOBEC-3G (Homo sapiens, UniProt Q9HC16); format: functional;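 also: Dose-response counterscreen measuring inhibition of APOBEC3G DNA deaminase activity, run while confirming APOBEC3A inhibitors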
[3] = target: T3, Short transient receptor potential channel 4 (Mus musculus, UniProt Q9QUQ5); test: mouse TRPC4 channel activators, dose response, cell-based, HEK293 TRPC4/mu-opioid, Fluo-4 calcium (AID 434937); format: functional
T3 sequence (Q9QUQ5 whole entry): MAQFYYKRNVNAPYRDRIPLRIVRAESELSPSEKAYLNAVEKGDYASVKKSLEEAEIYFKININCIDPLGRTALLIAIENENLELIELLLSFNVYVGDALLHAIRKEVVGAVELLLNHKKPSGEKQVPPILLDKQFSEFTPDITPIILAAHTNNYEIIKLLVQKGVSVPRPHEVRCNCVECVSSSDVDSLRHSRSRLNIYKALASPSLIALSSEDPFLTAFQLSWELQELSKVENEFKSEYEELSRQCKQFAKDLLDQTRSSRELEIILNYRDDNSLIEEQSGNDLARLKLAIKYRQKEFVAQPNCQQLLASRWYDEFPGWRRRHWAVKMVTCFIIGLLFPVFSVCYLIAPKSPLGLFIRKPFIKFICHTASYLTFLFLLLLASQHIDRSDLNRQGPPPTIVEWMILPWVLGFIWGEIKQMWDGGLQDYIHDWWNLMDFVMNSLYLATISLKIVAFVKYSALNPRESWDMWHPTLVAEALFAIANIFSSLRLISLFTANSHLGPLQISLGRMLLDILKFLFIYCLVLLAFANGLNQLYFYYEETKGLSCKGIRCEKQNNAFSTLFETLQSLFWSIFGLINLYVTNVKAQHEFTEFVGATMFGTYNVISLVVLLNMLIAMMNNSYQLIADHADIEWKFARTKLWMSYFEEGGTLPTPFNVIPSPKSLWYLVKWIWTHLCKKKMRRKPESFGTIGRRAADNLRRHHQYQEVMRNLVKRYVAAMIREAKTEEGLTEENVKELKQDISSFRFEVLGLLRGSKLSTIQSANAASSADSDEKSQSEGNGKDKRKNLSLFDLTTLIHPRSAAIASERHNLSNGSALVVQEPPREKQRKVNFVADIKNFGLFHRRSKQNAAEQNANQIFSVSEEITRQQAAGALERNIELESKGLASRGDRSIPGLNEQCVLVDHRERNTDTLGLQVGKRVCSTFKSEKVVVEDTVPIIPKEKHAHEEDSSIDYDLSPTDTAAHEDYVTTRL

[4] = target: DNA dC->dU-editing enzyme APOBEC-3A (Homo sapiens, UniProt P31941); test: Dose Response confirmation of small molecule APOBEC3A DNA Deaminase Inhibitors via a fluorescence-based single-stranded DNA deaminase assay. [Related pubchem assays (depositor defined):AID493011, AID493024]; format: functional
[5] = target: T4, Corticotropin-releasing factor receptor 2/Corticotropin-releasing factor-binding protein (Homo sapiens, UniProt P24387+Q13324); test: activators of CRF receptor 2 with binding protein – uHTS hits, confirmation (AID 602473); format: functional; conditions: read-out: EC50_Mean
T4 sequence (Q13324 whole entry): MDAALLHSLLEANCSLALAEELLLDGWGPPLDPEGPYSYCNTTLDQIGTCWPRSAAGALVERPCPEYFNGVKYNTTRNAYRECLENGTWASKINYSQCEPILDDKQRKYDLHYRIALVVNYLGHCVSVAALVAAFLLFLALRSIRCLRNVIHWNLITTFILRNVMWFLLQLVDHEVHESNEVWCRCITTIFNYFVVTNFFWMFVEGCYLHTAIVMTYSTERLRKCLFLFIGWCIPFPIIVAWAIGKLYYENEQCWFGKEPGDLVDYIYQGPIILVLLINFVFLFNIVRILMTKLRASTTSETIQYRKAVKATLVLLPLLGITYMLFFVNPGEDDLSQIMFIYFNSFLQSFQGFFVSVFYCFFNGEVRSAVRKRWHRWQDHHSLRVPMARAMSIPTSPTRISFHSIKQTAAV
T4 sequence (P24387 whole entry): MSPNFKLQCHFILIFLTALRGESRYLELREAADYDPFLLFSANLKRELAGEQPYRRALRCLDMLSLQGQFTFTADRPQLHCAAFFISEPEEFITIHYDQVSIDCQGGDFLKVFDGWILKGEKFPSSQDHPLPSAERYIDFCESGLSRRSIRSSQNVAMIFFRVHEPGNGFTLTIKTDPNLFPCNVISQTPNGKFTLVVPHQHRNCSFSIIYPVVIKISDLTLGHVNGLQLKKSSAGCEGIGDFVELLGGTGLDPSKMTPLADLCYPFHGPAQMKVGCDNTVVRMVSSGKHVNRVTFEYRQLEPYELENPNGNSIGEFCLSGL

DNA dC->dU-editing enzyme APOBEC-3G, sequence (Q9HC16 whole entry): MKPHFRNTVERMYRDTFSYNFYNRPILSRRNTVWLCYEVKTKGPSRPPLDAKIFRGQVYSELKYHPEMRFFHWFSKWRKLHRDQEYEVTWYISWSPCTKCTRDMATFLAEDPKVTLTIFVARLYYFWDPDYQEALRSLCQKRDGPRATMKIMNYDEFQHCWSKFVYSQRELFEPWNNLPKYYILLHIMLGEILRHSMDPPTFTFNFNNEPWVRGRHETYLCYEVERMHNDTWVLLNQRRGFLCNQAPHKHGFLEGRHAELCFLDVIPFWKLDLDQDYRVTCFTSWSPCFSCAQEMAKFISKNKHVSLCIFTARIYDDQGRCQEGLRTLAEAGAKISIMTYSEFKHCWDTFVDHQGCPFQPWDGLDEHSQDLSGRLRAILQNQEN
DNA dC->dU-editing enzyme APOBEC-3A, sequence (P31941 whole entry): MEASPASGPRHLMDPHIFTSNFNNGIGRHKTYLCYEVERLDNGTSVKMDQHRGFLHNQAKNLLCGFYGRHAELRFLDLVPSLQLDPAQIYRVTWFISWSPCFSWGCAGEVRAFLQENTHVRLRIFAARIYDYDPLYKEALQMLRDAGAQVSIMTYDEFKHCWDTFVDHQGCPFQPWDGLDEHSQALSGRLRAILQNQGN

Structure (SMILES): COc1ccc(-c2cc(N3CCCC3)n3ncnc3n2)cc1
- IC50 [1]: > 119 µM (inactive)
- IC50 (Exodeoxyribonuclease V): > 119 µM (inactive)

Structure (SMILES): CC1(C)CCN2CCC(C)(C)c3c(O)ccc1c32
- AC50 (INS1): 7.71 µM (active)
- EC50 (Troponin, cardiac muscle): 3.33 µM (active)

Structure (SMILES): COC(=O)C1=C(C)N(Cc2ccccc2)C(NCCc2ccccn2)=N[C@H]1c1cccc(F)c1
- IC50 (Protein skinhead-1): > 100 µM (inactive)
- IC50 [2]: 4.79 µM (active)
- EC50 [3]: 5.96 µM (active)
- IC50 [4]: 2.67 µM (active)

Structure (SMILES): CCc1n[nH]c(CCN)n1
- EC50 [3]: 3.76 µM (active)

Structure (SMILES): Cc1ccc(N2C(=O)C3C(C(=O)c4ccccc4)=NN(c4ccccc4)C3C2=O)cc1 (stereo unspecified)
- EC50 [5]: 22.2 µM (active)
- EC50 (Troponin, cardiac muscle): 17.9 µM (inactive)

— ChEMBL document CHEMBL1201862, “PubChem BioAssay data set” (2004)
